Data published in patent publication US8278032B2, “Transporter protein in mammal and utilization of the same” (priority 2005, dated 2012).
Where two headings read alike, the source gives them in different places.

Key:
hMATE1 [1] = biological target: T1, hMATE1 (Homo sapiens, UniProt Q96FL8); experiment: Inhibition of RI-labeled TEA uptake in HEK293 cells expressing hMATE1; details: for Inhibition of TEA uptake activity (in words, summary of Table 1): MATE1 expressing HEK293 cells, 50 μM TEA, pH 8.0
T1 sequence (Q96FL8 1-570): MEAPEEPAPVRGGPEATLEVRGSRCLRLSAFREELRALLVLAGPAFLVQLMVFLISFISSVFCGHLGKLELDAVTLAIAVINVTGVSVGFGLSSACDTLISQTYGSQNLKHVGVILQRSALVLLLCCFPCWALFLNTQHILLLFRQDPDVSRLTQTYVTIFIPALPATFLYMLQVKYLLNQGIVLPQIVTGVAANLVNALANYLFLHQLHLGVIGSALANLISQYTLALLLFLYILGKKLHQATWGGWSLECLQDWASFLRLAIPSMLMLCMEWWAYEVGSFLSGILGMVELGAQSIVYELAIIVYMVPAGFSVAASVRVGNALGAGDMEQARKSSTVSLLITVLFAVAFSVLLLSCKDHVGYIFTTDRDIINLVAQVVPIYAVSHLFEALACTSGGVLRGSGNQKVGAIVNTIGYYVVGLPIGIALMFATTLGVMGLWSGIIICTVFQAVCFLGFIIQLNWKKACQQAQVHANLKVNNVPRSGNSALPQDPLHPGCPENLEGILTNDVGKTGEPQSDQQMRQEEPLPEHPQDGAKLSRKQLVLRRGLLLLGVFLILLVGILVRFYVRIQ

mMATE1 = biological target: T2, mMATE1 (Mus musculus, UniProt Q8K0H1); experiment: Inhibition of RI-labeled TEA uptake in HEK293 cells expressing mMATE1; type: cell-based;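 further: transfected HEK293 cells held 5 min at 37 °C before tracer addition, uptake read as radioactivity retained on a 0.45-µm membrane filter, mean ± SD of three to nine experiments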
T2 construct: expressed in transfected cells; host or cells: HEK293
T2 sequence (Q8K0H1 with tags, fused parts or gaps): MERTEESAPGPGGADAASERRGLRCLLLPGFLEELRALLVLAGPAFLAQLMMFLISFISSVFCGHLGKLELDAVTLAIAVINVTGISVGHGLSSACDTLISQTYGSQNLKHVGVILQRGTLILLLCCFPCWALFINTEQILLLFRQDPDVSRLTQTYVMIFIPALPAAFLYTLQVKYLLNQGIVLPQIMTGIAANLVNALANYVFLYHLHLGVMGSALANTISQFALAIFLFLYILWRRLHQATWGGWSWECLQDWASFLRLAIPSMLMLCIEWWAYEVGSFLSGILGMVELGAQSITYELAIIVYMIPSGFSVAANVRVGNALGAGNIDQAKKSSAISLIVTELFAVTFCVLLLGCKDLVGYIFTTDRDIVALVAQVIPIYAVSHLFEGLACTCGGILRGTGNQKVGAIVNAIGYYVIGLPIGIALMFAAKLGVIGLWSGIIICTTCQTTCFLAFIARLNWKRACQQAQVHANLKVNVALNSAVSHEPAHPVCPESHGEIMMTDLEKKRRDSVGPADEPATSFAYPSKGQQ

hMATE1 [2] = biological target: T1, hMATE1; details: 1 mM 14C-TEA, pH of extracellular fluid varied, FIG. 12
hMATE1 [3] = biological target: T1, hMATE1; details: read-out: Km value of transport; substrate transport, cells expressing wild type MATE1 (TEA: FIG. 9(c)); MPP: MATE1, species not stated
[4] = compound 0.1 mM, 50 μM RI-labeled TEA, pH 8.0, HEK293 cells expressing hMATE1
[5] = compound 0.1 mM, 50 μM RI-labeled TEA, pH 8.0, HEK293 cells expressing mMATE1, read-out: TEA uptake activity percent taking the level with addition of no compound as 100% (% ± S.D.)
[6] = compound 0.01 mM, 50 μM RI-labeled TEA, pH 8.0, HEK293 cells expressing hMATE1
[7] = compound 10 mM, 50 μM RI-labeled TEA, pH 8.0, HEK293 cells expressing mMATE1
[8] = HEK293, pH 8, read-out: TEA uptake activity percent taking the level with addition of no compound as 100% (% ± S.D.)

Compound: CC(=O)[C@H]1CC[C@H]2[C@@H]3CCC4=CC(=O)CC[C@]4(C)[C@H]3CC[C@]12C [Progesterone]
- Inhibition of TEA uptake activity (in words, summary of Table 1) (hMATE1 [1]): inhibited
- TEA uptake activity percent taking the level with addition of no compound as 100% (% ± S.D.) (hMATE1 [1]; [4]): 31.7 ± 5.6%
- remaining activity at 100 µM (mMATE1; [5]): 9.3 ± 1.6%

Compound: O=c1c(O)c(-c2ccc(O)c(O)c2)oc2cc(O)cc(O)c12 [Quercetin]
- Inhibition of TEA uptake activity (in words, summary of Table 1) (hMATE1 [1]): inhibited
- TEA uptake activity percent taking the level with addition of no compound as 100% (% ± S.D.) (hMATE1 [1]; [4]): 28.2 ± 3.1%
- remaining activity at 100 µM (mMATE1; [5]): 47.1 ± 0.1%

Compound: C=C[C@H]1C[N@@]2CC[C@H]1C[C@@H]2[C@@H](O)c1ccnc2ccc(OC)cc12 [Quinidine]
- Inhibition of TEA uptake activity (in words, summary of Table 1) (hMATE1 [1]): strongly inhibited
- TEA uptake activity percent taking the level with addition of no compound as 100% (% ± S.D.) (hMATE1 [1]; [6]): 35.0 ± 2.1%
- TEA uptake activity percent taking the level with addition of no compound as 100% (% ± S.D.) (hMATE1 [1]; compound 0.05 mM, 50 μM RI-labeled TEA, pH 8.0, HEK293 cells expressing hMATE1): 5.1 ± 8.9%
- TEA uptake activity percent taking the level with addition of no compound as 100% (% ± S.D.) (hMATE1 [1]; [4]): 0.0 ± 4.2%
- remaining activity at 10 µM (mMATE1; compound 0.01 mM, 50 μM RI-labeled TEA, pH 8.0, HEK293 cells expressing mMATE1, read-out: TEA uptake activity percent taking the level with addition of no compound as 100% (% ± S.D.)): 74.7 ± 9.8%
- remaining activity at 50 µM (mMATE1; compound 0.05 mM, 50 μM RI-labeled TEA, pH 8.0, HEK293 cells expressing mMATE1, read-out: TEA uptake activity percent taking the level with addition of no compound as 100% (% ± S.D.)): 50.3 ± 5.4%
- remaining activity at 100 µM (mMATE1; [5]): 26.6 ± 7.3%

Compound: O=C(O)c1ccccc1O [Salicylate]
- TEA uptake activity percent taking the level with addition of no compound as 100% (% ± S.D.) (hMATE1 [1]; pH 8): 97.8 ± 4.8%
- TEA uptake activity percent taking the level with addition of no compound as 100% (% ± S.D.) (mMATE1; [7]): 92.4 ± 4.3%

Compound: O=C(O)CCC(=O)O [Succinate]
- TEA uptake activity percent taking the level with addition of no compound as 100% (% ± S.D.) (hMATE1 [1]; compound 10 mM, 50 μM RI-labeled TEA, pH 8.0, HEK293 cells expressing hMATE1): 108.1 ± 4.2%
- TEA uptake activity percent taking the level with addition of no compound as 100% (% ± S.D.) (mMATE1; [7]): 95.1 ± 6.3%

Compound: CC[N+](CC)(CC)CC [TEA, tetraethylammonium]
- TEA uptake activity percent taking the level with addition of no compound as 100% (% ± S.D.) (hMATE1 [1]; pH 8): 0.7 ± 1.8%
- Uptake of TEA into liposome containing MATE polypeptide (in words) (hMATE1 [2]): pH-dependent uptake of TEA was observed
- Km (hMATE1 [3]): 220 µM
- TEA uptake activity percent taking the level with addition of no compound as 100% (% ± S.D.) (mMATE1; compound 5 mM, 50 μM RI-labeled TEA, pH 8.0, HEK293 cells expressing mMATE1): 0.0 ± 7. %

Compound: C[C@]12CC[C@H]3[C@@H](CCC4=CC(=O)CC[C@@]43C)[C@@H]1CC[C@@H]2O [Testosterone]
- Inhibition of TEA uptake activity (in words, summary of Table 1) (hMATE1 [1]): inhibited
- TEA uptake activity percent taking the level with addition of no compound as 100% (% ± S.D.) (hMATE1 [1]; compound 0.001 mM, 50 μM RI-labeled TEA, pH 8.0, HEK293 cells expressing hMATE1): 99.6 ± 4.3%
- TEA uptake activity percent taking the level with addition of no compound as 100% (% ± S.D.) (hMATE1 [1]; [6]): 64.5 ± 14.7%
- TEA uptake activity percent taking the level with addition of no compound as 100% (% ± S.D.) (hMATE1 [1]; [4]): 38.8 ± 3.2%
- remaining activity at 1 µM (mMATE1; [8]): 67 ± 8.7%
- remaining activity at 10 µM (mMATE1; [8]): 44.7 ± 3%
- remaining activity at 100 µM (mMATE1; [8]): 11.5 ± 1.1%

Compound: O=c1[nH]c(=O)c2[nH]c(=O)[nH]c2[nH]1 [Uric acid]
- Inhibition of TEA uptake activity (in words, summary of Table 1) (hMATE1 [1]): not inhibited
- TEA uptake activity percent taking the level with addition of no compound as 100% (% ± S.D.) (hMATE1 [1]; compound 1 mM, 50 μM RI-labeled TEA, pH 8.0, HEK293 cells expressing hMATE1): 107.8 ± 2.7%
- remaining activity at 1000 µM (mMATE1; compound 1 mM, 50 μM RI-labeled TEA, pH 8.0, HEK293 cells expressing mMATE1, read-out: TEA uptake activity percent taking the level with addition of no compound as 100% (% ± S.D.)): 109 ± 6.4%

Compound: Rhodamine 123 [Rhodamine123]
- Inhibition of TEA uptake activity (in words, summary of Table 1) (hMATE1 [1]): inhibited
- TEA uptake activity percent taking the level with addition of no compound as 100% (% ± S.D.) (hMATE1 [1]; [6]): 5.0 ± 6.4%
- TEA uptake activity percent taking the level with addition of no compound as 100% (% ± S.D.) (mMATE1; compound 0.01 mM, 50 μM RI-labeled TEA, pH 8.0, HEK293 cells expressing mMATE1): 0.5 ± 6.2%
